Publication PMC11286609, “In vitro and in vivo analyses of eFAP: a novel FAP-targeting small molecule for radionuclide theranostics and other oncological interventions” (EJNMMI Radiopharmacy and Chemistry, 2024)

Experiments:
[1] = Stability in mouse serum at 37 °C (radio-HPLC / LC-MS); format: in vitro ADME; conditions: % intact labeled ligand, mouse serum, 37 °C
Method: For the stability assessment of eFAP-6, [^111In]In-eFAP-6 or [^177Lu]Lu-eFAP-6 (~ 3–7 MBq, 20 µL) was mixed with 180 µL of PBS (0.01 M, pH 7.4) and incubated at 37 °C for up to 24 h. A sample of the PBS solution was directly injected on the radio-HPLC at 1, 4, and 24 h after incubation. Additionally, [^111In]In-eFAP-6 and [^177Lu]Lu-eFAP-6 (5–15 MBq, 50 µL) were incubated with 350 µL of commercially acquired mouse or human serum (Biolegend; San Diego, CA, USA) at 37 °C for up to 24 h. Following 1, 4, and 24 h of incubation, 50 µL of the solution were mixed with 50 µL of acetonitrile in an Eppendorf tube, and centrifuged at 5000× g for 20 min. The supernatant was then analyzed by radio-HPLC. Stability studies of eFAP-7 were performed by incubation of eFAP-7 (50 µL, 10^− 4 M) in 450 µL PBS or serum at 37 °C for up to 24 h. After 1, 4, and 24 h of incubation, 50 µL of the PBS incubation solution were directly analyzed by liquid chromatography-mass spectrometry (LC-MS), while 50 µL of the serum solution was mixed with 50 µL of acetonitrile in an Eppendorf tube, and centrifuged at 5000× g for 20 min, followed by LC-MS analyses.

muFAP = target: T1, muFAP (Mus musculus, UniProt P97321); assay: Recombinant enzymatic inhibition assay, muFAP (Z-Gly-Pro-AMC); format: biochemical, murine; conditions: n = 3, picture: nM ± 95% CI
T1 sequence (P97321 1-761): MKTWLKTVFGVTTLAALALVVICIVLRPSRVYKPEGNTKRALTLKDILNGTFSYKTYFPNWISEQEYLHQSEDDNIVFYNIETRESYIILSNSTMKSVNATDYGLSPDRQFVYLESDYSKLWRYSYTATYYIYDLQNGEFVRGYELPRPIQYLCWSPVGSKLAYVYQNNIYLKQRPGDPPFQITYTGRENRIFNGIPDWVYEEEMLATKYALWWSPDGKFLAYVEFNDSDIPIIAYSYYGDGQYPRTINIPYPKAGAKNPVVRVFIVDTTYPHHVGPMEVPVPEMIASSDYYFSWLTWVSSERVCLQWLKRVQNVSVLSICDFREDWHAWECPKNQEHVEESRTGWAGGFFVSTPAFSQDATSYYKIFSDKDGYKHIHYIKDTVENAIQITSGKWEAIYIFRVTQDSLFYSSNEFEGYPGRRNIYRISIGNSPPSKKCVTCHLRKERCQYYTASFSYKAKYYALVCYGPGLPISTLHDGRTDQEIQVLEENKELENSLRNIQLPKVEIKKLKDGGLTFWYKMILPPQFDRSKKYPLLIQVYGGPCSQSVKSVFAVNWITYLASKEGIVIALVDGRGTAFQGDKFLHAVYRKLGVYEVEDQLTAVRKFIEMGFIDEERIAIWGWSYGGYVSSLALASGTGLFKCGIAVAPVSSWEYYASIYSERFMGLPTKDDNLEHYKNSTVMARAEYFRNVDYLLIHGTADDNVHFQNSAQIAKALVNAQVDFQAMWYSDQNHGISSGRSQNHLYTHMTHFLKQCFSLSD
Method: (§1) All enzymatic assays were performed in black 384-well plates, and enzymatic activity was measured on a microplate reader, monitoring the fluorescence at λEX 350 nm/λEM 485 nm. […] Val-boroPro (10^− 4 M) and assay buffer served as a positive and negative control, respectively. To measure inhibition of PREP, 50 µL of the reaction mixture containing 1 µM Z-Gly-Pro-AMC and 10 ng PREP (R&D Systems; Minneapolis, MN, USA) were used. The enzymatic assay of DPP4 contained substrate (100 µM), DPP4 (Abcam; Cambridge, UK) (10 nM), assay buffer, and increasing concentrations of the inhibitors (10^− 10 M to 10^− 4 M). Sitagliptin (10^− 4 M) and assay buffer were used as a positive and negative control, respectively. H-Gly-Pro-AMC (100 µM) in assay buffer was used as a baseline control. The plates were analyzed in a Hidex Sense Microplate reader (Hidex; Turku, Finland) at 37 °C under dark conditions for 1 h (huFAP), 2 h (muFAP), or 30 min (PREP, DPP4). For all assays, the components were kept on ice before plating.
(§2) All statistical analyses were performed with GraphPad Prism version 9.0 (San Diego, California USA). All IC50 values were determined using a non-linear regression Log(inhibitor) vs. response analysis with variable slope (four parameters). For the in vivo results outliers were identified by a ROUT test (Q = 1%) and excluded. Next, a two-tailed student’s t-test was performed (*p < 0.05, **p < 0.01, ***p < 0.001). All experiments were performed in triplicate and repeated at least three times.

[2] = target: T2, dipeptidyl peptidase IV (DPP4) (Homo sapiens, UniProt P27487); assay: Enzymatic inhibition assay, DPP4; format: biochemical; conditions: recombinant DPP4, n = 3; picture: nM ± 95% CI
T2 construct: purchased Abcam
T2 sequence (P27487 whole entry, species assumed): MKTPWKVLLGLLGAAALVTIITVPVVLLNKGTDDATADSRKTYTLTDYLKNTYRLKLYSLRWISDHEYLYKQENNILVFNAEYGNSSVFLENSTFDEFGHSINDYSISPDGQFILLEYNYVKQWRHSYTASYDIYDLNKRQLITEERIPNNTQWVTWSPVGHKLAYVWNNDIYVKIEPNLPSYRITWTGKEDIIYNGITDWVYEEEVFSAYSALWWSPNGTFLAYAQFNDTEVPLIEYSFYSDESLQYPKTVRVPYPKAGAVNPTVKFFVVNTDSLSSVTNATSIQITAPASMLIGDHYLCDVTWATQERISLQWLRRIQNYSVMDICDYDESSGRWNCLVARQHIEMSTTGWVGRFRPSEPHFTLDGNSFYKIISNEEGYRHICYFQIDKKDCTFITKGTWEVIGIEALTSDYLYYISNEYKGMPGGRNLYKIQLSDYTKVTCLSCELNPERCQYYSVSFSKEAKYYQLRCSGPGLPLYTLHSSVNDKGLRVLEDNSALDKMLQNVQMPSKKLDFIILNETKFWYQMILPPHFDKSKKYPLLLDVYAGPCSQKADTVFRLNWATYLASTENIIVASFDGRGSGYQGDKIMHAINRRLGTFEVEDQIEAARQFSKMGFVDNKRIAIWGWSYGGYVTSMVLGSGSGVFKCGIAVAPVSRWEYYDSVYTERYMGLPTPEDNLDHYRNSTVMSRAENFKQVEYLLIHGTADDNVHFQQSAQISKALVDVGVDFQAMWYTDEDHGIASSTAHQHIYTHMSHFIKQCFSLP
Method: All experiments were performed in triplicate and repeated at least three times.

[3] = target: T3, prolyl oligopeptidase (PREP) (Homo sapiens, UniProt P48147); assay: Enzymatic inhibition assay, PREP; format: biochemical; conditions: for IC50: recombinant PREP, n = 3, picture: nM ± 95% CI; for SI PREP/huFAP: selectivity index, IC50 PREP / IC50 huFAP
T3 construct: purchased R&D Systems
T3 sequence (P48147 1-710): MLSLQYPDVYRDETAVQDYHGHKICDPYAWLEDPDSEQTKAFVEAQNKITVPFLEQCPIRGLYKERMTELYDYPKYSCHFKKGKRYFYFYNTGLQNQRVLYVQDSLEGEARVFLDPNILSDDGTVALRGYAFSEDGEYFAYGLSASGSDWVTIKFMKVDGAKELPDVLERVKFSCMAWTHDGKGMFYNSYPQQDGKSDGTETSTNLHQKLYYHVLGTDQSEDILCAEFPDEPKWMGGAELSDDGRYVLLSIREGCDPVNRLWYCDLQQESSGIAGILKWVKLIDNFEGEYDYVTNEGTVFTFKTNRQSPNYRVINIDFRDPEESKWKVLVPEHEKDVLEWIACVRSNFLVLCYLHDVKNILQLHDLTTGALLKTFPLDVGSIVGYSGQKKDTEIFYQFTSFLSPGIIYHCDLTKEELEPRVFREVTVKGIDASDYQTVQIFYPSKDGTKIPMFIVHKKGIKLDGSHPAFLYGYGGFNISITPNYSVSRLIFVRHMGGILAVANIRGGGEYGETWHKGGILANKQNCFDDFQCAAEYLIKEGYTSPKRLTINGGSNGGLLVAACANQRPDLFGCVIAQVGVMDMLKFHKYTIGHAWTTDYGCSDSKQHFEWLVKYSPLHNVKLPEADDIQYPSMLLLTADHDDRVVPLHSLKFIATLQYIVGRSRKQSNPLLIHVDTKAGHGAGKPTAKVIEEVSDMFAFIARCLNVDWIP
Method: as §1, §2

| Stability (% ± SD) Mouse serum 1 h ([1]; 1 h) [%] | Stability (% ± SD) Mouse serum 4 h ([1]; 4 h) [%] | Stability (% ± SD) Mouse serum 24 h ([1]; 24 h) [%] | IC50 (muFAP) [nM] | IC50 [2] [nM] | IC50 [3] [nM] | SI PREP/huFAP [3] | SMILES |
| --- | --- | --- | --- | --- | --- | --- | --- |
| 85.0 ± 3.3 | 83.2 ± 4.1 | 76.2 ± 7.1 | 4.56 ± 0.2 | 612000 ± 42700 | 475 ± 104 | 112.3 | CN1/C(=C/C=C/C=C/C2=[N+](CCCCCC(=O)NCCCOc3cccc4c(C(=O)NCC(=O)N5CC(F)(F)C[C@H]5C#N)ccnc34)c3ccc(S(=O)(=O)[O-])cc3C2(C)C)C(C)(C)c2cc(S(=O)(=O)O)ccc21 [eFAP-7, 1-(6-((3-((4-((2-((S)-2-cyano-4,4-difluoropyrrolidin-1-yl)-2-oxoethyl)carbamoyl)quinolin-8-yl)oxy)propyl)amino)-6-oxohexyl)-3,3-dimethyl-5-sulfo-2-((1E,3E)-5-((E)-1,3,3-trimethyl-5-sulfoindolin-2-ylidene)penta-1,3-dien-1-yl)-3H-indol-1-ium] |
| – | – | – | 1.55 ± 1.2 | – | 3480 ± 172 | – | CN(CCCN1CCN(C(=O)CN2CCN(CC(=O)O)CCN(CC(=O)O)CCN(CC(=O)O)CC2)CC1)c1ccc2nccc(C(=O)NCC(=O)N3CC(F)(F)C[C@H]3C#N)c2c1 [FAPI-46, reference compound] |
| – | – | – | 0.58 ± 0.02 | 58600 ± 11400 | 161 ± 53.6 | 138.6 | N#C[C@@H]1CC(F)(F)CN1C(=O)CNC(=O)c1ccnc2c(OCCCNC(=O)CN3CCN(CC(=O)O)CCN(CC(=O)O)CCN(CC(=O)O)CC3)cccc12 [eFAP-6, (S)-2,2',2''-(10-(2-((3-((4-((2-(2-cyano-4,4-difluoropyrrolidin-1-yl)-2-oxoethyl)carbamoyl)quinolin-8-yl)oxy)propyl)amino)-2-oxoethyl)-1,4,7,10-tetraazacyclododecane-1,4,7-triyl)triacetic acid] |
